Laboratory results from the supplement of paper PMC10307832.

Columns and labels:
Test in all cases: relative viability (nuclei count vs DMSO), 5 days (fraction); higher = more cells survive
[1] = compound: CN(NC(=O)CC(=O)NN(C)C(=S)c1ccccc1)C(=S)c1ccccc1 [Elesclomol] + CCNC(=O)c1noc(-c2cc(C(C)C)c(O)cc2O)c1-c1ccc(CN2CCOCC2)cc1 [Luminespib] (partner 0.01 µM)
Summary of the method: (§1)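 Lung cancer cell lines in 1536-well plates were dosed by pin tool the day after seeding, either with one drug alone or with a fixed anchor-drug dose plus five library-drug doses (not always all listed) in √10 steps. After 5 days, cells were fixed and their nuclei stained in one step (final 0.05% Triton X-100, 1% formaldehyde, 1 ug/ml Hoechst), then counted on 4× images. Relative viability is the nuclei count in treated wells divided by that in vehicle wells. Values are medians of duplicate plates.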

[2] = compound: CN(NC(=O)CC(=O)NN(C)C(=S)c1ccccc1)C(=S)c1ccccc1 [Elesclomol] + Nc1ncn([C@H]2C[C@H](O)[C@@H](CO)O2)c(=O)n1 [Decitabine] (partner 2 µM)
Summary of the method: as §1

[3] = compound: CN(NC(=O)CC(=O)NN(C)C(=S)c1ccccc1)C(=S)c1ccccc1 [Elesclomol] + CC1(C)CCC(c2ccc(Cl)cc2)=C(CN2CCN(c3ccc(C(=O)NS(=O)(=O)c4ccc(N[C@H](CCN5CCOCC5)CSc5ccccc5)c(S(=O)(=O)C(F)(F)F)c4)cc3)CC2)C1 [Navitoclax] (partner 0.5 µM)
Summary of the method: as §1

[4] = compound: CN(NC(=O)CC(=O)NN(C)C(=S)c1ccccc1)C(=S)c1ccccc1 [Elesclomol] + CC(=O)Nc1cccc(-n2c(=O)n(C3CC3)c(=O)c3c(Nc4ccc(I)cc4F)n(C)c(=O)c(C)c32)c1 [Trametinib] (partner 0.02 µM)
Summary of the method: as §1

[5] = compound: CN(NC(=O)CC(=O)NN(C)C(=S)c1ccccc1)C(=S)c1ccccc1 [Elesclomol] + NC(=O)Nc1cc(-c2cccc(F)c2)sc1C(=O)N[C@H]1CCCNC1 [AZD7762] (partner 0.2 µM)
Summary of the method: as §1

NCI-H2347
relative viability ([1]; first compound 0.003162 µM): 0.318
relative viability ([1]; first compound 0.01 µM): 0.557
relative viability ([1]; first compound 0.03162 µM): 0.282
relative viability ([1]; first compound 0.1 µM): 0.25
relative viability ([2]; first compound 0.003162 µM): 0.662
relative viability ([2]; first compound 0.01 µM): 0.56
relative viability ([2]; first compound 0.03162 µM): 0.534
relative viability ([2]; first compound 0.1 µM): 0.475
relative viability ([3]; first compound 0.003162 µM): 0.809
relative viability ([3]; first compound 0.01 µM): 0.668
relative viability ([3]; first compound 0.03162 µM): 0.905
relative viability ([3]; first compound 0.1 µM): 0.299
relative viability ([4]; first compound 0.003162 µM): 0.341
relative viability ([4]; first compound 0.01 µM): 0.264
relative viability ([4]; first compound 0.03162 µM): 0.33
relative viability ([4]; first compound 0.1 µM): 0.256
relative viability ([5]; first compound 0.003162 µM): 0.703
relative viability ([5]; first compound 0.01 µM): 0.661
relative viability ([5]; first compound 0.03162 µM): 0.629
relative viability ([5]; first compound 0.1 µM): 0.447

NCI-H2405
relative viability ([1]; first compound 0.003162 µM): 0.684
relative viability ([1]; first compound 0.01 µM): 0.554
relative viability ([1]; first compound 0.03162 µM): 0.265
relative viability ([1]; first compound 0.1 µM): 0.299
relative viability ([2]; first compound 0.003162 µM): 0.775
relative viability ([2]; first compound 0.01 µM): 0.643
relative viability ([2]; first compound 0.03162 µM): 0.336
relative viability ([2]; first compound 0.1 µM): 0.324
relative viability ([3]; first compound 0.003162 µM): 0.619
relative viability ([3]; first compound 0.01 µM): 0.178
relative viability ([3]; first compound 0.03162 µM): 0.137
relative viability ([3]; first compound 0.1 µM): 0.132
relative viability ([4]; first compound 0.003162 µM): 0.687
relative viability ([4]; first compound 0.01 µM): 0.468
relative viability ([4]; first compound 0.03162 µM): 0.295
relative viability ([4]; first compound 0.1 µM): 0.272
relative viability ([5]; first compound 0.003162 µM): 0.692
relative viability ([5]; first compound 0.01 µM): 0.576
relative viability ([5]; first compound 0.03162 µM): 0.269
relative viability ([5]; first compound 0.1 µM): 0.281

NCI-H3122
relative viability ([1]; first compound 0.003162 µM): 0.083
relative viability ([1]; first compound 0.01 µM): 0.113
relative viability ([1]; first compound 0.03162 µM): 0.0663
relative viability ([1]; first compound 0.1 µM): 0.0832
relative viability ([2]; first compound 0.003162 µM): 0.415
relative viability ([2]; first compound 0.01 µM): 0.455
relative viability ([2]; first compound 0.03162 µM): 0.397
relative viability ([2]; first compound 0.1 µM): 0.0861
relative viability ([3]; first compound 0.003162 µM): 1.05
relative viability ([3]; first compound 0.01 µM): 1.03
relative viability ([3]; first compound 0.03162 µM): 1.01
relative viability ([3]; first compound 0.1 µM): 0.247
relative viability ([4]; first compound 0.003162 µM): 0.23
relative viability ([4]; first compound 0.01 µM): 0.21
relative viability ([4]; first compound 0.03162 µM): 0.216
relative viability ([4]; first compound 0.1 µM): 0.0967
relative viability ([5]; first compound 0.003162 µM): 0.97
relative viability ([5]; first compound 0.01 µM): 0.972
relative viability ([5]; first compound 0.03162 µM): 0.912
relative viability ([5]; first compound 0.1 µM): 0.0974

PC-3 [JPC-3]
relative viability ([1]; first compound 0.003162 µM): 0.706
relative viability ([1]; first compound 0.01 µM): 0.612
relative viability ([1]; first compound 0.03162 µM): 0.701
relative viability ([1]; first compound 0.1 µM): 0.447
relative viability ([2]; first compound 0.003162 µM): 0.877
relative viability ([2]; first compound 0.01 µM): 0.656
relative viability ([2]; first compound 0.03162 µM): 0.487
relative viability ([2]; first compound 0.1 µM): 0.524
relative viability ([3]; first compound 0.003162 µM): 0.866
relative viability ([3]; first compound 0.01 µM): 0.682
relative viability ([3]; first compound 0.03162 µM): 0.794
relative viability ([3]; first compound 0.1 µM): 0.7
relative viability ([4]; first compound 0.003162 µM): 0.714
relative viability ([4]; first compound 0.01 µM): 0.473
relative viability ([4]; first compound 0.03162 µM): 0.435
relative viability ([4]; first compound 0.1 µM): 0.5
relative viability ([5]; first compound 0.003162 µM): 0.741
relative viability ([5]; first compound 0.01 µM): 0.539
relative viability ([5]; first compound 0.03162 µM): 0.438
relative viability ([5]; first compound 0.1 µM): 0.401

PC-14
relative viability ([1]; first compound 0.003162 µM): 0.11
relative viability ([1]; first compound 0.01 µM): 0.0979
relative viability ([1]; first compound 0.03162 µM): 0.0814
relative viability ([1]; first compound 0.1 µM): 0.0429
relative viability ([2]; first compound 0.003162 µM): 0.126
relative viability ([2]; first compound 0.01 µM): 0.0523
relative viability ([2]; first compound 0.03162 µM): 0.0385
relative viability ([2]; first compound 0.1 µM): 0.0283
relative viability ([3]; first compound 0.003162 µM): 0.977
relative viability ([3]; first compound 0.01 µM): 0.719
relative viability ([3]; first compound 0.03162 µM): 0.0635
relative viability ([3]; first compound 0.1 µM): 0.0562
relative viability ([4]; first compound 0.003162 µM): 0.206
relative viability ([4]; first compound 0.01 µM): 0.0608
relative viability ([4]; first compound 0.03162 µM): 0.0204
relative viability ([4]; first compound 0.1 µM): 0.0164
relative viability ([5]; first compound 0.003162 µM): 0.488
relative viability ([5]; first compound 0.01 µM): 0.107
relative viability ([5]; first compound 0.03162 µM): 0.055
relative viability ([5]; first compound 0.1 µM): 0.0324

RERF-LC-KJ
relative viability ([1]; first compound 0.003162 µM): 0.656
relative viability ([1]; first compound 0.01 µM): 0.418
relative viability ([1]; first compound 0.03162 µM): 0.34
relative viability ([1]; first compound 0.1 µM): 0.457
relative viability ([2]; first compound 0.003162 µM): 0.414
relative viability ([2]; first compound 0.01 µM): 0.288
relative viability ([2]; first compound 0.03162 µM): 0.297
relative viability ([2]; first compound 0.1 µM): 0.222
relative viability ([3]; first compound 0.003162 µM): 0.47
relative viability ([3]; first compound 0.01 µM): 0.288
relative viability ([3]; first compound 0.03162 µM): 0.293
relative viability ([3]; first compound 0.1 µM): 0.191
relative viability ([4]; first compound 0.003162 µM): 0.753
relative viability ([4]; first compound 0.01 µM): 0.536
relative viability ([4]; first compound 0.03162 µM): 0.572
relative viability ([4]; first compound 0.1 µM): 0.28
relative viability ([5]; first compound 0.003162 µM): 1
relative viability ([5]; first compound 0.01 µM): 0.868
relative viability ([5]; first compound 0.03162 µM): 0.741
relative viability ([5]; first compound 0.1 µM): 0.297
